Target: T1, Kinesin-like protein KIF18A (Homo sapiens, UniProt Q8NI77)
T1 sequence (Q8NI77 whole entry): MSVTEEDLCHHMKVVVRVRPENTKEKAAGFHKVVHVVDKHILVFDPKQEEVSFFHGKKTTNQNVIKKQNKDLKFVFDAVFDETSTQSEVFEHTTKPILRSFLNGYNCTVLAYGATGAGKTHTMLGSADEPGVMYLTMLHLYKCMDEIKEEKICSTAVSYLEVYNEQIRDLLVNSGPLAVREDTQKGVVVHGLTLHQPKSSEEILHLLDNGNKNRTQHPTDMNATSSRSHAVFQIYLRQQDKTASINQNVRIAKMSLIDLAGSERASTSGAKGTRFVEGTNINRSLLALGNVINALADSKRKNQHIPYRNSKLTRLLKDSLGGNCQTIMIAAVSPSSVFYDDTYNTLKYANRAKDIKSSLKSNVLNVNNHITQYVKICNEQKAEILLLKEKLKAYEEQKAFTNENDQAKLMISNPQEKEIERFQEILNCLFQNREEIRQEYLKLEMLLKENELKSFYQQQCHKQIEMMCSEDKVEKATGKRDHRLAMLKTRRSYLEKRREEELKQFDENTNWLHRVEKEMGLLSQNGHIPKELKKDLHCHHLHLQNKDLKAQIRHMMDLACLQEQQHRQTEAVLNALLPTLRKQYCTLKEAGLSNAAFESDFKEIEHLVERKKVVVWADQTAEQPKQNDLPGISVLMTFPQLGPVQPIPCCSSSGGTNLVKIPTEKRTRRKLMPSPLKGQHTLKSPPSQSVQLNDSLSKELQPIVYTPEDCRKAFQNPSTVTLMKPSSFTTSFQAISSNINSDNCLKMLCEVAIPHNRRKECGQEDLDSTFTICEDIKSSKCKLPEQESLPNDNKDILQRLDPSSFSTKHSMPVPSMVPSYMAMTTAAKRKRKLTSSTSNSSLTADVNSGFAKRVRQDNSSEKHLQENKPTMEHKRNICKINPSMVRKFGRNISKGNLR
Assay: Inhibitory Activity Assay
Method: In this experiment, an ADP-Glo kit was used to detect the inhibitory activity of the compounds against KIF18A. Each compound was prepared into a 10 mM stock solution with DMSO, which was then diluted at 1:5 to obtain 9 gradients with the initial final concentration set at 10 μM. Meanwhile, a control group and a blank group were also set up. The reaction buffer consisted of 15 mM Tris (pH 7.5), 10 mM MgCl2, and 0.01% Pluronic F-68. […] Finally, the ADP-Glo reagent was added to detect the luminescence intensity, where the luminescence intensity is directly proportional to the ADP content. Inhibition rate (%)=(1−Sample signal)/DMSO signal×100. Sample signal is the value of the compound group, and DMSO signal is the value of the DMSO control group. Then, the inhibition rate at each concentration was calculated, and the IC50 was determined by fitting using the GraphPadPrism 7.0 software.

Compound | IC50 [nM]
CS(=O)(=O)Nc1ccc(C(=O)Nc2cn3ccnc3c(N3CCC(F)(F)CC3)n2)c(N2CC3CCC(C3)C2)c1 [US20250382298, Compound 19] | 26.8
O=C(Nc1cc2cccnc2c(N2CCC(F)(F)CC2)n1)c1ccc(NS(=O)(=O)CCO)cc1N1CCC2(CC1)CC2 [US20250382298, Compound 21] | 10.7
O=C(Nc1cn2ccnc2c(N2CCC3(CC2)CC3)n1)c1ccc(NS(=O)(=O)CCO)cc1N1CCC2(CC1)CC2 [US20250382298, Compound 31] | 55.3
CS(=O)(=O)Nc1ccc(C(=O)Nc2cc3cccnc3c(N3CCC(F)(F)CC3)n2)c(N2CCC3(CC2)CC3)c1 [US20250382298, Compound 32] | 117
CS(=O)(=O)Nc1ccc(C(=O)Nc2cc3cccnc3c(N3CCC(F)(F)CC3)n2)c(N2CC3CCC(C3)C2)c1 [US20250382298, Compound 33] | 111
O=C(Nc1cn2c(F)cnc2c(N2CCC(F)(F)CC2)n1)c1ccc(NS(=O)(=O)CCO)cc1N1CCC2(CC1)CC2 [US20250382298, Compound 34] | 44.3
O=C(Nc1cc2nccnc2c(N2CCC(F)(F)CC2)n1)c1ccc(NS(=O)(=O)CCO)cc1N1CCC2(CC1)CC2 [US20250382298, Compound 39] | 32.2
O=C(Nc1cn2c(F)cnc2c(N2CCC(F)(F)CC2)n1)c1ccc(NS(=O)(=O)CCO)cc1N1CC2CCC(C2)C1 [US20250382298, Compound 51] | 10
CS(=O)(=O)Nc1ccc(C(=O)Nc2cc3nccnc3c(N3CCC(F)(F)CC3)n2)c(N2CC3CCC(C3)C2)c1 [US20250382298, Compound 72] | 134

Reference: BindingDB's records for patent US20250382298 (Suzhou Genhouse Bio Co., 2025)
